Measured values from patent US20070220627A1, “Methods and Compositions for the Selection of a Transgenic Plant” (PIONEER HI-BRED INTERNATIONAL, INC., priority 2006, published 2007).

Tested on: Non-transgenic maize seed from inbred N46
Test: Priming matrix additives: Dormex + DMSO
Assay type: in vivo
Conditions: 1% DMSO without Dormex, 3 hours, 95 seed
Procedure: Non-transgenic maize seed from inbred N46 were primed with 0, 5, 10, 15, or 30% Dormex® solutions with and without 1% DMSO. For each treatment, 96 seeds were soaked in 50 ml of Dormexe solution in a petri dish for 3 hours at room temperature. After priming the seeds were transferred into pollination bags, and dried overnight in front of a fan. Dried primed seed were then planted into flats to germinate.

## C[S+](C)[O-] [DMSO]
  Germination %: 93%
  Seedlings: 88
